Reference: patent US20240368109A1, “ALLOSTERIC MODULATORS OF NICOTINIC ACETYLCHOLINE RECEPTORS” (MERCK SHARP & DOHME LLC, priority 2021, published 2024)

Biological target: human α7 nAChR (Homo sapiens (Human), UniProt P36544)
Test: Automated patch-clamp electrophysiology functional assay (Assay A)
Type: cell-based
Conditions: IonFlux HT whole-cell population patch, HEK cells expressing human α7/RIC-3, 40 μM acetylcholine
Method: The α7 nAChR positive allosteric modulator (PAM) activity of the present compounds may be tested using assays known in the art. The α7 nAChR PAMs described herein have activities in an automated patch-clamp electrophysiology functional assay as described in the examples. The assay was performed using the IonFlux HT in a whole-cell, population patch configuration. See Golden et al. Assay Drug Dev. Technol. (2011) 9:608-619. The compounds were assessed for their ability to modulate the function of the human α7 nAChR stably expressed in a HEK cell line both in the presence, and in the absence of the natural α7 agonist acetylcholine. By performing a series of such measurements at different concentrations, the effective concentration of the α7 nAChR PAMs (EC50) was determined. See Spencer et al. Assay Drug Dev. Technol. (2012) 10:313-324.
Direct activation of α7 (agonism), and potentiation of acetylcholine-evoked α7 currents was determined as follows:
Automated Patch-Clamp Electrophysiology Functional Assay (Assay A)
Automated patch-clamp electrophysiology was performed using the IonFluxHT (Fluxion Biosciences Inc., San Francisco, CA) in the whole-cell, population patch configuration. Test compounds were assessed for their ability to modulate the function of the α7 nicotinic acetylcholine receptor both in the presence, and in the absence of the natural α7 agonist acetylcholine. A HEK cell line stably expressing both human RIC-3 and human α7 (PrecisION hnAChR α7/RIC-3, Eurofins Pharma, St. Charles, MO) was cultured in 175 cm^2 triple-layer tissue culture flasks to no more than 90% confluency in DMEM/F-12 growth media supplemented with 10% heat-inactivated fetal bovine serum, 1% non-essential amino acids, 0.625 μg/mL Puromycin, and 400 μg/mL Geneticin. Immediately prior to assay, cells were detached by first aspirating growth media, rinsing with Dulbecco's phosphate buffered saline, and then adding 10 mL of Accutase (Innovative Cell Technologies, San Diego, CA) to the flask and then incubating at 37° C. for 5 minutes. Detached cells were then recovered by the addition of 40 mL of CHO-serum-free media supplemented with 25 mM HEPES, and rocked gently in a 50 mL conical tube for 20 minutes prior to patch-clamp assay. After recovery, cells were pelleted by centrifugation at 1,000 RPM for 1 minute in a compact bench top centrifuge; recovery media was aspirated and cells were resuspended in external recording solution (150 mM NaCl, 5 mM KCl, 2 mM CaCl2), 1 mM MgCl2, 10 mM HEPES, 12 mM dextrose) to a density of 5.0×10^6 cells/mL. The cell suspension was added to the cell inlet wells on an IonFlux HT population patch plate which had previously been rinsed and primed with deionized H2O. Test compounds were serially diluted in DMSO and then resuspended to the final test concentration in external recording solution, with, or without 40 μM acetylcholine added to the external recording solution; test compounds were then transferred to the IonFlux HT population patch plate. Internal recording solution (110 mM TrisPO4, 28 mM TrisBase, 0.1 mM CaCl2), 2 mM MgCl2, 11 mM EGTA, 4 mM MgATP) was added to the internal recording solution inlet wells on the IonFlux HT patch plate previously loaded with cells and test compounds, and the plate loaded into the IonFlux HT instrument. A protocol was executed on the IonFlux HT to trap the cells, break into the cells, and establish the whole-cell recording configuration; cells were voltage-clamped at a holding potential of −60 mV for the duration of the experiment, all experiments were conducted at room temperature, and the IonFlux HT injection pressure was 8 psi for solution applications. Upon establishing the whole-cell configuration, external recording solution was perfused into the recording chambers for 120 seconds and then 40 μM acetylcholine was applied for 1 second and immediately washed off with external recording solution for 60 seconds. […]

Sequence of human α7 nAChR (P36544 23-502): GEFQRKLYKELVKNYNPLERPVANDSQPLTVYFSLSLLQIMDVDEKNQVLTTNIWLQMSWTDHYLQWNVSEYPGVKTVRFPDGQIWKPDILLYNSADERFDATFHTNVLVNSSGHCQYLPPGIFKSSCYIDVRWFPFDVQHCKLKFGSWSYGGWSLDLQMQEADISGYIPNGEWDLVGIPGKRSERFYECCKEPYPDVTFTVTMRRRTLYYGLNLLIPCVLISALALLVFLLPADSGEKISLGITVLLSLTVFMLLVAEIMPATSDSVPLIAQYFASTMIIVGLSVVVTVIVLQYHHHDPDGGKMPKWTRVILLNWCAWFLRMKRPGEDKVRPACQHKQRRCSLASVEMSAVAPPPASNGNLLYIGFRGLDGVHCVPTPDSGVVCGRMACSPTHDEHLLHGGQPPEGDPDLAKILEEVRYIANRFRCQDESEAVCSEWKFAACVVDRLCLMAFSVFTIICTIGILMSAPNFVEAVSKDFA

EC50 (electrophysiology EC50 values)	EC50 (potency class)	Structure (SMILES)
1600 nM	500 to 5000 nM	O=C(N[C@H]1CCOc2cc(F)c(F)cc21)C1C2COc3ccccc3C21 (stereo partly drawn) [Example A19, exo-N-[(4S)-6,7-difluoro-3,4-dihydro-2H-1-benzopyran-4-yl]-1,1a,2,7b-tetrahydrocyclopropa[c][1]benzopyran-1-carboxamide]
570 nM	500 to 5000 nM	O=C(N[C@@H](C(F)F)C1CCCCC1)C1C2COc3ccccc3C21 (stereo partly drawn) [Example A20, exo-N-[(1R)-1-cyclohexyl-2,2-difluoroethyl]-1,1a,2,7b-tetrahydrocyclopropa[c][1]benzopyran-1-carboxamide]
1200 nM	500 to 5000 nM	CCOc1ccc([C@H](COC)NC(=O)C2C3Oc4ccccc4C32)cc1 (stereo partly drawn) [Example B1, exo-N-[(1R)-1-(4-ethoxyphenyl)-2-methoxyethyl]-1a,6b-dihydro-1H-cyclopropa[b][1]benzofuran-1-carboxamide]
1500 nM	500 to 5000 nM	CCOc1ccc([C@H](COC)NC(=O)C2C3Oc4ccccc4C32)cc1 (stereo partly drawn) [Example B2, exo-N-[(1R)-1-(4-ethoxyphenyl)-2-methoxyethyl]-1a,6b-dihydro-1H-cyclopropa[b][1]benzofuran-1-carboxamide]
470 nM	100 to 500 nM	CCOc1ccc([C@H](COC)NC(=O)C2C3Oc4ccccc4C32)cc1 (stereo partly drawn) [Example B3, exo-N-[(1R)-1-(4-ethoxyphenyl)-2-methoxyethyl]-1a,6b-dihydro-1H-cyclopropa[b][1]benzofuran-1-carboxamide]
940 nM	500 to 5000 nM	CCOc1ccc([C@H](COC)NC(=O)C2C3Oc4ccc(F)cc4C32)cc1 (stereo partly drawn) [Example B4, exo-N-[(1R)-1-(4-ethoxyphenyl)-2-methoxyethyl]-5-fluoro-1a,6b-dihydro-1H-cyclopropa[b][1]benzofuran-1-carboxamide]
760 nM	500 to 5000 nM	CCOc1ccc([C@H](COC)NC(=O)C2C3Oc4ccc(F)cc4C32)cc1 (stereo partly drawn) [Example B5, exo-N-[(1R)-1-(4-ethoxyphenyl)-2-methoxyethyl]-5-fluoro-1a,6b-dihydro-1H-cyclopropa[b][1]benzofuran-1-carboxamide]
–	100 to 500 nM	CCOc1ccc([C@H](COC)NC(=O)C2C3Oc4c(Cl)cccc4C32)cc1 (stereo partly drawn) [Example B6, exo-3-chloro-N-[(1R)-1-(4-ethoxyphenyl)-2-methoxyethyl]-1a,6b-dihydro-1H-cyclopropa[b][1]benzofuran-1-carboxamide]
480 nM	100 to 500 nM	CCOc1ccc([C@H](COC)NC(=O)C2C3Oc4c(Cl)cccc4C32)cc1 (stereo partly drawn) [Example B7, exo-3-chloro-N-[(1R)-1-(4-ethoxyphenyl)-2-methoxyethyl]-1a,6b-dihydro-1H-cyclopropa[b][1]benzofuran-1-carboxamide]
280 nM	100 to 500 nM	CCOc1ccc([C@H](COC)NC(=O)C2C3Oc4c(Br)cccc4C32)cc1 (stereo partly drawn) [Example B8, exo-3-bromo-N-[(1R)-1-(4-ethoxyphenyl)-2-methoxyethyl]-1a,6b-dihydro-1H-cyclopropa[b][1]benzofuran-1-carboxamide]
390 nM	100 to 500 nM	CCOc1ccc([C@H](COC)NC(=O)C2C3Oc4c(Br)cccc4C32)cc1 (stereo partly drawn) [Example B9, exo-3-bromo-N-[(1R)-1-(4-ethoxyphenyl)-2-methoxyethyl]-1a,6b-dihydro-1H-cyclopropa[b][1]benzofuran-1-carboxamide]
2800 nM	500 to 5000 nM	CCOc1ccc([C@H](COC)NC(=O)C2C3Oc4ccc(-c5c(C)noc5C)cc4C32)cc1 (stereo partly drawn) [Example B10, exo-5-(3,5-dimethyl-1,2-oxazol-4-yl)-N-[(1R)-1-(4-ethoxyphenyl)-2-methoxyethyl]-1a,6b-dihydro-1H-cyclopropa[b][1]benzofuran-1-carboxamide]
–	5000 to 50000 nM	CCOc1ccc([C@H](COC)NC(=O)C2C3Oc4ccc(-c5cncnc5)cc4C32)cc1 (stereo partly drawn) [Example B11, exo-N-[(1R)-1-(4-ethoxyphenyl)-2-methoxyethyl]-5-(pyrimidin-5-yl)-1a,6b-dihydro-1H-cyclopropa[b][1]benzofuran-1-carboxamide]
